These results are taken from ChEMBL document CHEMBL1131502, “Thiol-induced nitric oxide release from 3-halogeno-3,4-dihydrodiazete 1,2-dioxides” (J Med Chem, 1998).

Bounds are passed on as bounds.

The species entered for one data set is Homo sapiens. Briefly: The compound was tested for half-maximum inhibition of platelet aggregation. The format is functional.
Data set [1] in a line: apparent rate constant value of the compound. Type of data set: ADME.
Data set [2] is described as follows: The compound was tested for the concentration to reduce the viability of bovine aortic endothelial cell by 50% within 24 hr after compound addition. Conditions: Bos taurus. Type of data set: functional, cell-based.

What is called IC50 is the concentration at which inhibition is half-maximal. A lower IC50 goes with greater potency. In the case of `CC12CCCCC1(Br)[N+]([O-])=[N+]2[O-]` (stereo not drawn), the IC50 in the data set filed under Homo sapiens amounted to 1 µM; in data set [2], 230 µM. Further, the rate constant app in data set [1] was 0.072 M⁻¹ s⁻¹.

On to `CC1(C)[N+]([O-])=[N+]([O-])C1(C)Br` (stereo not drawn), for which the IC50 stood at 10 µM in the data set filed under Homo sapiens and 1400 µM in data set [2]. Also, the rate constant app in data set [1] came out at 0.052 M⁻¹ s⁻¹.

Regarding `CC12CCCCC1(Cl)[N+]([O-])=[N+]2[O-]` (stereo not drawn), the rate constant app in data set [1] worked out at 0.0033 M⁻¹ s⁻¹. Moreover, in data set [2], the IC50 is more than 6000 µM.
